Patent US20230373972A1, “PIPERAZINE DERIVATIVE, PREPARATION METHOD THEREFOR AND USE THEREOF” (Zhejiang Hisun Pharmaceutical Co., Ltd., priority 2020, published 2023)
Where two headings read alike, the source gives them in different places.

Experiments:
[1] = system: human plasma; assay: In-vitro anticoagulation on human plasma (APTT kit, coagulation time); conditions: concentration of the compound when the coagulation time (APTT) was prolonged twice
Experimental: The following method was used to determine the in-vitro anticoagulation of the compound of the present invention in the human plasma. In the method, an APTT kit of the MediRox company was used to test. The APTT kit was purchased from MediRox (article number MRX930), and the human plasma was prepared internally.
The preparation of the human plasma was briefly described as follows: human plasma was collected in a blood collection tube containing sodium citrate, and centrifuged at 3,000 rpm for 10 minutes at room temperature, and plasma was collected, and packaged separately and stored at −80° C.
An APTT test process was briefly described as follows: a test compound was dissolved in DMSO to prepare a 10 mM storage solution first, then the test compound was diluted with DMSO by a triple gradient, and a final concentration of the test compound in a reaction system ranged from 217 μM to 0.03 μM. 4 μL, of test compounds at different concentrations diluted with DMSO were added to a centrifuge tube containing 180 μL of plasma, and 4 μL of DMSO was added to a blank group, shaken and mixed evenly, and incubated at 37° C. for 5 minutes. Subsequently, an APTT reagent was placed in a reagent holder according to instrument requirements, the incubated plasma sample was placed in a detection position of a coagulation analyzer, and a coagulation time was determined and recorded (s). With a final concentration of the compound as an abscissa and Ratio (Ratio=TiT0, wherein T0 was a coagulation time of a blank control, and Ti was a coagulation time of a compound to be tested) as an ordinate, a coagulation dose-effect curve was drawn by Graph Pad Prisms, and a concentration of the compound when the coagulation time was prolonged twice was calculated, which was namely a CT2 value, as shown in Table 2.

[2] = molecular target: T1, Native human Factor XIa protease (Homo sapiens, UniProt P03951); assay: Inhibition of activity of Factor XIa protease (chromogenic substrate S-2366); format: biochemical; conditions: S-2366 1 mM, 37° C. 10 minutes, absorption at 405 nm
T1 construct: The Native human Factor XIa protease was purchased from Abcam; purchased Abcam ab62411
T1 sequence (P03951 388-625 limits assumed): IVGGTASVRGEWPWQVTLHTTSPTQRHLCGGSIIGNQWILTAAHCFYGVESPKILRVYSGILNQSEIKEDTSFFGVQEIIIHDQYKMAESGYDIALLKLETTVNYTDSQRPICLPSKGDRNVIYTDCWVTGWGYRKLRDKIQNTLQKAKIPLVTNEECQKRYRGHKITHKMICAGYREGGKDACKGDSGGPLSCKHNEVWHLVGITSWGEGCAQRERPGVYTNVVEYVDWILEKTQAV
T1 sequence (P03951 19-387 partner limits assumed): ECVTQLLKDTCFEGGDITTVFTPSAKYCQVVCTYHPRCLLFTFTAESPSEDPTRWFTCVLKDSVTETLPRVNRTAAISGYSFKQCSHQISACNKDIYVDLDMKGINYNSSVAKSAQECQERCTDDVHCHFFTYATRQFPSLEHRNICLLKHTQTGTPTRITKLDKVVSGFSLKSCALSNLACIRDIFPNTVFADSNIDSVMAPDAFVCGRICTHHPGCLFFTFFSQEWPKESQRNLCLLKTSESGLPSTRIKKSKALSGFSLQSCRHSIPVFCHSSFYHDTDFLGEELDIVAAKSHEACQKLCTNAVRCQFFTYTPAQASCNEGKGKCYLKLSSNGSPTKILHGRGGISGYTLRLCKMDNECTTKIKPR
Text: The following method was used to determine an inhibition degree of the compound of the present invention on an activity of Native human Factor XIa protease in vitro. In the method, a Factor XIa chromogenic substrate was used to test the inhibition degree on the activity of the Factor XIa protease. The Native human Factor XIa protease was purchased from Abcam (article number ab62411), and S-2366 was purchased from Chromogenix (article number 82109039). An experimental process was briefly described as follows: a test compound was dissolved in DMSO to prepare a 10 mM storage solution first, then the compound was diluted with a Factor XIa reaction buffer (100 mM Tris-HCl, 200 mM NaCl, 0.02% Tween 20, pH 7.4) by a quadruple gradient, and a final concentration of the test compound in a reaction system ranged from 10,000 nM to […]. The reaction was carried out in a 384-well microplate. 2 μL of the test compounds at different concentrations diluted with the reaction buffer were added to wells first, and 2 μL of 1% DMSO (a final concentration of DMSO in the reaction system was 0.1%) was used to replace blank and control wells. Subsequently, 8 μL of enzyme working solution (a final concentration of Factor XIa was […]) was added to each well, and 8 μL of Factor XIa reaction buffer was used to replace the blank well, centrifuged for 30 seconds, and incubated on ice for 5 minutes. Finally, 10 μL of substrate working solution (a final concentration of S-2366 was 1 mM) was added to each well, and centrifuged for 30 seconds, and the reaction was started. The solution was incubated at 37° C. for 10 minutes to determine a light absorption value at 405 nm. By comparing with a light absorption value of the control group (0.1% DMSO), a percentage inhibition rate of the compound at each concentration was calculated, and nonlinear regression analysis was carried out on value-inhibition rate with the concentration of the compound by GraphPad Prism 5 software, so as to obtain an IC50 value of the compound, as shown in Table 1.

[3] = Pharmacokinetics in SD rat; format: in vivo; conditions: male, plasma; for AUC(0-t): read-out: Curve area AUC0-t; for half-life: read-out: Half-life period T1/2(h) (converted)
Experimental: Taking a SD rat as a test animal, the SD rat was administrated with the compound of the present invention by intravenous injection and/or intragastric administration, and drug concentrations in plasma at different times were determined by a IC/MS/MS method to study pharmacokinetic characteristics of the compound of the present invention in the SD rat.
SD rats, male, 195 g to 235 g, 6 weeks old to 8 weeks old, purchased from Shanghai JieSiJie Laboratory Animal Co., Ltd.
Preparation of drug administrated by intravenous injection: a proper amount of compound to be tested was added to a proper amount of DMAC; (30% Soltol HS 15): Saline=10%: 10%: 80% (v/v/v), and shaken in a vortex manner, so as to prepare a final solution with a concentration of 0.5 mg/mL.
Preparation of drug administrated by intragastric administration: a proper amount of compound to be tested was added to a proper amount of DMAC: (30% Soltol HS 15): Saline=10%: 10%: 80% (v/v/v), and shaken in a vortex manner, so as to prepare a final solution with a concentration of 1 mg/mL.
SD rats were divided into an intravenous injection group of the compound to be tested (3 rats/group) and an intragastric administration group (3 rats/group) of the compound to be tested.
Intravenous injection group: the drug was administrated by dorsalis pedis vein injection (according to a dosage of 1 mg/kg and a volume of 2 mL/kg) without fasting.
Intragastric administration group: the drug was administrated by intragastric administration (according to a dosage of 10 mg/kg and a volume of 10 mL/kg) after fasting overnight, and food was taken 4 hours after administration.
Intravenous injection group: about 150 μL of blood was collected into an EDTA-K2 anticoagulant tube through a jugular vein 0.083 hour, 0.25 hour, 0.5 hour, 1 hour, 2 hours, 4 hours, 8 hours and 24 hours after administration.
Intragastric administration group; about 150 μL of blood was collected into an EDTA-K2 anticoagulant tube through a jugular vein 0.25 how, 0.5 hour, 1 hour, 2 hours, 4 hours, 8 hours and 24 hours after administration.
The blood sample was stored in wet ice first, and plasma was centrifugally separated within 15 minutes after sampling (centrifugation conditions: 2,000 g, 4° C., 5 minutes). The collected upper plasma was stored at −70° C. before analysis.
Contents of the compound to be tested in rat plasma after intravenous injection and intragastric administration were determined by LC-MS/MS.

[4] = iv, injection administration 1 mg/kg
[5] = po, intragastric administration 10 mg/kg

Row | SMILES | IC50 [2] | CT2 [1] | also measured
1 | COc1ccc(CC(C(=O)Nc2ccc3nn(C)cc3c2)N2CC(=O)N(c3cc(Cl)ccc3-n3cc(Cl)nn3)CC2=O)cc1 (centres unmarked) [Example 108, 2-(4-(5-chloro-2-(4-chloro-1H-1,2,3-triazol-1-yl)phenyl)-2,5-dioxopiperazin-1-yl)-3-(4-methoxyphenyl)-N-(2-methyl-2H-indazol-5-yl)propanamide] | 35.8 nM | 10.6 µM | –
2 | O=C(O)c1ccc(NC(=O)C(Cc2ccccc2)N2CC(=O)N(c3cc(Cl)ccc3-n3ccnn3)CC2=O)cc1 (centres unmarked) [Example 11, 4-(2-(4-(5-Chloro-2-(1H-1,2,3-triazole-1-yl)phenyl)-2,5-dioxopiperazin-1-yl)-3-phenylpropanamido)benzoic Acid] | 24.9 nM | 8.1 µM | –
3 | Cn1ccc(C[C@H](C(=O)Nc2ccc3nn(C)cc3c2)N2CC(=O)N(c3cc(Cl)ccc3-n3cc(Cl)nn3)CC2=O)n1 [Example 113, (R)-2-(4-(5-chloro-2-(4-chloro-1H-1,2,3-triazol-1-yl)phenyl)-2,5-dioxopiperazin-1-yl)-3-(1-methyl-1H-pyrazol-3-yl)-N-(2-methyl-2H-indazol-5-yl)propanamide] | – | – | AUC(0-t) [3, 4]: 0.552 ± 0.108 µg·h/mL; half-life [3, 4]: 0.5 ± 0.0254 h; bioavailability ([3]; po, intragastric 10 mg/kg vs injection 1 mg/kg, read-out: Bioavailability F(%)): 54.7 ± 46%; Cmax ([3]; po, intragastric administration 10 mg/kg, read-out: Blood concentration Cmax): 3.42 ± 2.35 µg/mL; AUC(0-t) [3, 5]: 3.02 ± 2.54 µg·h/mL; half-life [3, 5]: 1.38 ± 0.297 h
4 | COC(=O)Nc1ccc(NC(=O)C(Cc2ccccc2)N2CC(=O)N(c3cc(Cl)ccc3-n3cnnn3)CC2=O)cc1 (centres unmarked) [Example 2, Methyl (4-(2-(4-(5-chloro-2-(1H-tetrazol-1-yl)phenyl)-2,5-dioxopiperazin-1-yl)-3-phenylpropanamido)phenyl)carbamate] | 44.9 nM | 12.6 µM | –
5 | O=C(Nc1ccc2nn(C(F)F)cc2c1)[C@H](Cc1ccccc1)N1CC(=O)N(c2cc(Cl)ccc2-n2cc(Cl)nn2)CC1=O [Example 97, (S)-2-(4-(5-chloro-2-(4-chloro-1H-1,2,3-triazol-1-yl)phenyl)-2,5-dioxopiperazin-1-yl)-N-(2-(difluoromethyl)-2H-indazol-5-yl)-3-phenylpropanamide] | 21.2 nM | 12.5 µM | –
6 | CNC(=O)c1ccc(NC(=O)C(Cc2ccccc2)N2CC(=O)N(c3cc(Cl)ccc3-n3cnnn3)CC2=O)cc1 (centres unmarked) [Example 6, 4-(2-(4-(5-Chloro-2-(1H-tetrazol-1-yl)phenyl)-2,5-dioxopiperazin-1-yl)-3-phenylpropanamido)-N-methylbenzamide] | 34.6 nM | 4.9 µM | –
7 | [2H]C([2H])([2H])n1cc2cc(NC(=O)C(Cc3ccccc3)N3CC(=O)N(c4cc(Cl)ccc4-n4cc(Cl)nn4)CC3=O)ccc2n1 (centres unmarked) [Example 109, 2-(4-(5-Chloro-2-(4-chloro-1H-1,2,3-triazol-1-yl)phenyl)-2,5-dioxopiperazin-1-yl)-N-(2-(methyl-d3)-2H-indazol-5-yl)-3-phenylpropanamide] | 12.7 nM | 12.6 µM | –
8 | Cn1ccc(C[C@@H](C(=O)Nc2ccc3nn(C)cc3c2)N2CC(=O)N(c3cc(Cl)ccc3-n3cc(Cl)nn3)CC2=O)n1 [Example 112, (S)-2-(4-(5-chloro-2-(4-chloro-1H-1,2,3-triazole-1-yl)phenyl)-2,5-dioxopiperazin-1-yl)-3-(1-methyl-1H-pyrazole-3-yl)-N-(2-methyl-2H-indazol-5-yl)propionamide] | 25.6 nM | 5.6 µM | –
9 | Cn1cc2cc(NC(=O)C(Cc3ccccc3)N3CC(=O)N(c4cc(Cl)ccc4-n4cnnn4)CC3=O)ccc2n1 (centres unmarked) [Example 19, 2-(4-(5-Chloro-2-(1H-tetrazol-1-yl)phenyl)-2,5-dioxopiperazin-1-yl)-N-(2-methyl-2H-indazol-5-yl)-3-phenylpropanamide] | 8.5 nM | 3.0 µM | –

Now from value to compound, other results behind:

Row | IC50 [2] | SMILES | CT2 [1] | also measured
10 | 32 nM | NC(=O)c1ccc(NC(=O)C(Cc2ccccc2)N2CC(=O)N(c3cc(Cl)ccc3-n3cnnn3)CC2=O)cc1F (centres unmarked) [Example 35, 4-(2-(4-(5-Chloro-2-(1H-tetrazol-1-yl)phenyl)-2,5-dioxopiperazin-1-yl)-3-phenylpropanamido)-2-fluorobenzamide] | 5.8 µM | –
11 | 14.9 nM | O=C1Cc2cc(NC(=O)C(Cc3ccccc3)N3CC(=O)N(c4cc(Cl)ccc4-n4cnnn4)CC3=O)ccc2N1 (centres unmarked) [Example 13, 2-(4-(5-Chloro-2-(1H-tetrazol-1-yl)phenyl)-2,5-dioxopiperazin-1-yl)-N-(2-oxoindolin-5-yl)-3-phenylpropanamide] | 4.0 µM | –
12 | 17.6 nM | O=C(O)c1ccc(NC(=O)C(Cc2ccccc2)N2CC(=O)N(c3cc(Cl)ccc3-n3cnnn3)CC2=O)cc1 (centres unmarked) [Example 52, 4-(2-(4-(5-chloro-2-(1H-tetrazol-1-yl)phenyl)-2,5-dioxopiperazin-1-yl)-3-phenylpropanamido)benzoic Acid] | 2.0 µM | –
13 | 7.8 nM | O=C(O)c1cccc(NC(=O)C(Cc2ccccc2)N2CC(=O)N(c3cc(Cl)ccc3-n3cnnn3)CC2=O)c1 (centres unmarked) [Example 9, 3-(2-(4-(5-Chloro-2-(1H-tetrazol-1-yl)phenyl)-2,5-dioxopiperazin-1-yl)-3-phenylpropanamido)benzoic Acid] | 2.9 µM | –
14 | 34.8 nM | CC(=O)c1ccc(NC(=O)C(Cc2ccccc2)N2CC(=O)N(c3cc(Cl)ccc3-n3cnnn3)CC2=O)cc1 (centres unmarked) [Example 17] | 11.2 µM | –
